IC50 data for 13 molecules are collected here from patent publication US7507741B2, “Heterocyclic compounds” (SmithKline Beecham Corporation, priority 1999, dated 2009).

One assay deals with T1, c-erbB-2 (Homo sapiens, UniProt P04626).
T1 construct: baculovirus expressed, recombinant constructs of the intracellular domains of c-erbB-2 and c-erbB-4; made in house
The experiment in a line: Substrate phosphorylation assay, c-erbB-2. The format is biochemical. Conditions: recombinant intracellular domain, baculovirus expressed; ATP and peptide at Km; read-out: ErbB2 IC50. How it is done:
(§1) The substrate phosphorylation assays use baculovirus expressed, recombinant constructs of the intracellular domains of c-erbB-2 and c-erbB-4 that are constitutively active and EGFr isolated from solubilised A431 cell membranes. […] The reaction is stopped by the addition of EDTA (final concentration 0.15 mM) and a sample is transferred to a streptavidin-coated 96-well plate. The plate is washed and level of phosphotyrosine on the peptide is determined using a Europium-labelled antiphosphotyrosine antibody and quantified with a time-resolved fluorescence technique. The results are shown in Table 1 as the IC50 value in Micromolar ranges.

Another assay concerns the target T2, c-erbB-4 (Homo sapiens, UniProt Q15303).
T2 construct: baculovirus expressed, recombinant constructs of the intracellular domains of c-erbB-2 and c-erbB-4; made in house
In words: Substrate phosphorylation assay, c-erbB-4. Type of assay: biochemical. Conditions: recombinant intracellular domain, baculovirus expressed; ATP and peptide at Km; read-out: ErbB4 IC50. The protocol: as §1, with “membranes. The method measures the ability of the isolated enzymes to catalyse the transfer of the γ-phosphate from ATP onto tyrosine residues in a biotinylated synthetic peptide (Biotin-[…].” for “membranes.”

In a further assay the test system is HB4a c5.2 cells. In words: Methylene blue growth inhibition assay, HB4a c5.2. The format is cell-based. Conditions: HB4a-C5.2, 72 h; human mammary epithelial line transfected with human c-erbB2 cDNA, 3 days; read-out: HB4a c5.2 IC50 (cell growth). How it is done:
(§2) Human breast (BT474), head and neck (HN5) and gastric tumor (N87) cell lines were cultured in low glucose DMEM (Life Technologies 12320-032) containing 10% fetal bovine serum (FBS) at 37° C. in a humidified 10% CO2, 90% air incubator. The SV40 transformed human mammary epithelial cell line HB4a was transfected with either human H-ras cDNA (HB4a r4.2) or the human c-erbB2 cDNA (HB4a c5.2). The HB4a clones were cultured in RPMI containing 10% FBS, insulin (5 μg/ml), hydrocortisone (5 μg/ml), supplemented with the selection agent hygromycin B (50 μg/ml). Cells were harvested using trypsin/EDTA, counted using a haemocytometer, and plated in […] of the appropriate media, at the following densities, in a 96-well tissue culture plate (Falcon 3075): BT474 10,000 cells/well, HN5 3,000 cells/well, N87 10,000 cells/well, HB4a c5.2 3,000 cells/well, HB4a r4.2 3,000 cells/well. The next day, compounds were diluted in DMEM containing […] gentamicin, at twice the final required concentration, from 10 mM stock solutions in DMSO. […] of these dilutions were added to the […] of media currently on the cell plates. Medium containing 0.6% DMSO was added to control wells. Compounds diluted in DMEM were added to all cell lines, including the HB4a r4.2 and HB4a c5.2 cell lines. The final concentration of DMSO in all wells was 0.3%. Cells were incubated at 37° C., 10% CO2 for 3 days. Medium was removed by aspiration. Cell biomass was estimated by staining cells with 100 μl per well methylene blue (Sigma M9140, 0.5% in 50:50 ethanol:water), and incubation at room temperature for at least 30 minutes. Stain was removed, and the plates rinsed under a gentle stream of water, and air-dried. To release stain from the cells 100 μl of solubilization solution was added (1% N-lauroyl sarcosine, Sodium salt, Sigma L5125, in PBS), and plates were shaken gently for about 30 minutes. Optical density at 620 nm was measured on a microplate reader. Percent inhibition of cell growth was calculated relative to vehicle treated control wells. Concentration of compound that inhibits 50% of cell growth (IC50) was interpolated using nonlinear regression (Levenberg-Marquardt) and the equation, y=Vmax*(1−(x/(K+x)))+Y2, where “K” was equal to the IC50.

The subject of a further assay is N87 cells. The experiment in a line: Methylene blue growth inhibition assay, N87. Conditions: 72 h; human gastric tumor cell line, 3 days. The format is cell-based. The protocol:
as §2

For another assay, the system named is HN5 cells. The experiment in a line: Methylene blue growth inhibition assay, HN5. Type of assay: cell-based. Conditions: HN5, 72 h; human head and neck tumor cell line, 3 days. The protocol:
as §2

Assay [1] concerns the target T3, EGFr isolated from solubilised A431 cell membranes (Homo sapiens, UniProt P00533).
T3 construct: EGFr isolated from solubilised A431 cell membranes; endogenous in cells; host or cells: A431 cell membranes, solubilised
The experiment in a line: Substrate phosphorylation assay, EGFr. Type of assay: biochemical. Conditions: ATP and peptide at Km. How it is done:
The substrate phosphorylation assays use baculovirus expressed, recombinant constructs of the intracellular domains of c-erbB-2 and c-erbB-4 that are constitutively active and EGFr isolated from solubilised A431 cell membranes. […] The reaction is stopped by the addition of EDTA (final concentration 0.15 mM) and a sample is transferred to a streptavidin-coated 96-well plate. The plate is washed and level of phosphotyrosine on the peptide is determined using a Europium-labelled antiphosphotyrosine antibody and quantified with a time-resolved fluorescence technique.

The subject of the next assay is BT474 cells. In words: Methylene blue growth inhibition assay, BT474. The format is cell-based. Conditions: BT-474, 72 h; human breast tumor cell line, 3 days. How it is done: as §2

T3 sequence (P00533 25-1210): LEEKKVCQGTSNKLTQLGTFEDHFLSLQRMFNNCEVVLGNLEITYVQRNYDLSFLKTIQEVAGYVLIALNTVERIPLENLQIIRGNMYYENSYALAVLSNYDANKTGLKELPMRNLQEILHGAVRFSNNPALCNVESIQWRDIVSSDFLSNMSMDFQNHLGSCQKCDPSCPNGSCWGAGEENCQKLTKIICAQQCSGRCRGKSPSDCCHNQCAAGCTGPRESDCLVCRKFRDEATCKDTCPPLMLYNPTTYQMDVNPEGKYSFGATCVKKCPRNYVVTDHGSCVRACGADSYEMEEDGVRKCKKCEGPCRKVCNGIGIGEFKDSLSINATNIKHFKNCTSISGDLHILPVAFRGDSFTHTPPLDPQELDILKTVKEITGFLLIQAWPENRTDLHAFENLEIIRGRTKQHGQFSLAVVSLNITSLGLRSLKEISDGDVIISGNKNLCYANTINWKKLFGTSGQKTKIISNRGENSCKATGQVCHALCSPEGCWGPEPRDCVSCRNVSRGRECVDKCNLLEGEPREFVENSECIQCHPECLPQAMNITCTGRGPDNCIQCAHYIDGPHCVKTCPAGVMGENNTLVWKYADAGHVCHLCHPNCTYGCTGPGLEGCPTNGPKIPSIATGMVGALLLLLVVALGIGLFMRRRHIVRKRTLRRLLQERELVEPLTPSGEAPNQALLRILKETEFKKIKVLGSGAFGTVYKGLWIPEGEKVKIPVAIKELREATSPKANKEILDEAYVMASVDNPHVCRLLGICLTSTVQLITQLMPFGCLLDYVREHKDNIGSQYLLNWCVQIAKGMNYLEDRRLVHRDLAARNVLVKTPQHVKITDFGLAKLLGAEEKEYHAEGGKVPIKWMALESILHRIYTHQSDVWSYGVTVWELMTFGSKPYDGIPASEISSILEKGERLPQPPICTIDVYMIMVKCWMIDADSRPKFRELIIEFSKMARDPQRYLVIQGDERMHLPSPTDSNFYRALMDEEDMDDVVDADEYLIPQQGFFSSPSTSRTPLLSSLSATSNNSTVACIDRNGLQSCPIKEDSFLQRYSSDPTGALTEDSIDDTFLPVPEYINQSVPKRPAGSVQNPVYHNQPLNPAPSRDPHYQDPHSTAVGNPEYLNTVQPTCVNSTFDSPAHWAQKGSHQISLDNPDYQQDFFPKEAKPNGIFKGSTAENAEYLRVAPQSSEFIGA
T1 sequence (P04626 676-1255 limits assumed): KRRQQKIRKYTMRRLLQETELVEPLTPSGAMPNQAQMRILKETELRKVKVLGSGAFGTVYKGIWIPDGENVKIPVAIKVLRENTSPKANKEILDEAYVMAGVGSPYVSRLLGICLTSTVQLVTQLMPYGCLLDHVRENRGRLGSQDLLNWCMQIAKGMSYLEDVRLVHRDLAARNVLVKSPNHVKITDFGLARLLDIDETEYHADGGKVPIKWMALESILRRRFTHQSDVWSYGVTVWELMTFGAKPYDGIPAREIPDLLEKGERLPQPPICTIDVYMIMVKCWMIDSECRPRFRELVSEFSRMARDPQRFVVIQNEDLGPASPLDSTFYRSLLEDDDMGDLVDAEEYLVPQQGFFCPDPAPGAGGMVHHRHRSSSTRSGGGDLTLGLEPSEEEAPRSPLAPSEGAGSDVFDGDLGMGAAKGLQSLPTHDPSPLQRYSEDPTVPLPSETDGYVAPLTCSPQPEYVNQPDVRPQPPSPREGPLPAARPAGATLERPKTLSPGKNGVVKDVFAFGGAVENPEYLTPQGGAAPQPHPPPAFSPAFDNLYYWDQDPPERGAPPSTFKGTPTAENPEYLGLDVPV
T2 sequence (Q15303 676-1308 limits assumed): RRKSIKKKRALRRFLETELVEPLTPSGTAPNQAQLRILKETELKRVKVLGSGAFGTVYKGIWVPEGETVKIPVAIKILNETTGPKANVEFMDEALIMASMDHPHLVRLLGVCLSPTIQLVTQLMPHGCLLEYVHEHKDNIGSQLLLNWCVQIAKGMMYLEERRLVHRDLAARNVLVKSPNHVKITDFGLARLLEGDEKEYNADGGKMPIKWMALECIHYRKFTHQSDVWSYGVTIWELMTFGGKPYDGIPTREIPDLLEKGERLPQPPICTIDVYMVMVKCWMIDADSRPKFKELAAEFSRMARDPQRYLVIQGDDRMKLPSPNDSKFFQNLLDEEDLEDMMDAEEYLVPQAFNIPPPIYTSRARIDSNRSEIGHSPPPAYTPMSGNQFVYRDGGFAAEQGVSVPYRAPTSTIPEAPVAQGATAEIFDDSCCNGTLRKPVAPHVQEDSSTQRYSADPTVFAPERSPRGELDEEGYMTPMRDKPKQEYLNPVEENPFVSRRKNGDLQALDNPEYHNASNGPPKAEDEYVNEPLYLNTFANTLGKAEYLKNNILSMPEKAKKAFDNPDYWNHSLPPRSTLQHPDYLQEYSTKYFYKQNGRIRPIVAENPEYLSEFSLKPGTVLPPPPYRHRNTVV

A word on the IC50: it is the concentration that gives 50% inhibition. For `Cn1ccnc1S(=O)(=O)CCNCc1ccc(-c2ccc3ncnc(Nc4ccc(OCc5cccc(F)c5)c(Cl)c4)c3c2)o1` [Example 2, (4-(3-Fluorobenzyloxy)-3-chlorophenyl)-(6-(2-((2-(2-N-methylimidazolyl)-sulphonyl-ethylamino)-methyl)-furan-2-yl)-quinazolin-4-yl)-amine], the IC50 at c-erbB-2 is under 100 nM; on c-erbB-4 it was 100 to 1000 nM; with HB4a c5.2 cells, 100 to 1000 nM; in the assay on N87 cells, 100 to 1000 nM; in the assay with HN5 cells it was 100 to 1000 nM; in assay [1] it was under 100 nM. This molecule showed an IC50 in the assay on BT474 cells of 100 to 1000 nM.

In the case of `O=S(=O)(CCOCc1ccc(-c2ccc3ncnc(Nc4ccc(OCc5cccc(F)c5)c(Cl)c4)c3c2)o1)c1ccccc1` [Example 3, N-{3-chloro-4-[(3-fluorobenzyl)oxy]phenyl}-6-(5-{[2-(phenylsulfonyl)ethoxy]methyl}-2-furyl)-4-quinazolinamine], the IC50 was under 100 nM at c-erbB-2; 1000 to 10000 nM on c-erbB-4; 100 to 1000 nM in the assay with HB4a c5.2 cells; 100 to 1000 nM in the assay with N87 cells; 100 to 1000 nM with HN5 cells; under 100 nM in assay [1]. In the assay on BT474 cells, this molecule returned an IC50 of 100 to 1000 nM.

With `O=S(=O)(CCNCc1ccc(-c2ccc3ncnc(Nc4ccc(OCc5cccc(F)c5)c(Cl)c4)c3c2)o1)c1ccccn1` [Example 5], the IC50 at c-erbB-2 was under 100 nM; at c-erbB-4, 1000 to 10000 nM; with HB4a c5.2 cells it was 1000 to 10000 nM; in the assay with N87 cells, 100 to 1000 nM; in the assay on HN5 cells it was 100 to 1000 nM; in assay [1] it was under 100 nM. For the same molecule, the IC50 in the assay with BT474 cells fell in the range of 1000 to 10000 nM.

For `CCCS(=O)(=O)CCNCc1ccc(-c2cc3c(Nc4ccc(OCc5cccc(F)c5)cc4)ncnc3cn2)o1` [Example 6], the IC50 was under 100 nM on c-erbB-2; 1000 to 10000 nM at c-erbB-4; 100 to 1000 nM in the assay on HB4a c5.2 cells; 100 to 1000 nM in the assay with N87 cells; 100 to 1000 nM in the assay with HN5 cells; under 100 nM in assay [1]. For the same molecule, the IC50 with BT474 cells is 100 to 1000 nM.

Regarding `CCCS(=O)(=O)CCNCc1ccc(-c2ccc3ncnc(Nc4ccc(OCc5cccc(F)c5)c(Cl)c4)c3c2)o1` [Example 7], the IC50 is under 100 nM on c-erbB-2; 100 to 1000 nM at c-erbB-4; 1000 to 10000 nM in the assay with HB4a c5.2 cells; 1000 to 10000 nM in the assay on N87 cells; 1000 to 10000 nM in the assay on HN5 cells; under 100 nM in assay [1]. Moreover, the IC50 in the assay with BT474 cells is 1000 to 10000 nM.

As to `CS(=O)(=O)CCNCCCc1ccc(-c2ccc3ncnc(Nc4ccc(OCc5ccccc5)c(Cl)c4)c3c2)o1` [Example 8], the IC50 was under 100 nM on c-erbB-2; 1000 to 10000 nM on c-erbB-4; 100 to 1000 nM with HB4a c5.2 cells; 100 to 1000 nM in the assay with N87 cells; 100 to 1000 nM in the assay with HN5 cells; under 100 nM in assay [1]. This molecule also displayed an IC50 in the assay on BT474 cells of 100 to 1000 nM.

Take `CS(=O)(=O)CCOCc1ccc(-c2ccc3ncnc(Nc4ccc(OCc5cccc(F)c5)c(Cl)c4)c3c2)o1` [Example 13, N-{3-chloro-4-[(3-fluorobenzyl)oxy]phenyl}-6-(5-{[2-(methylsulfonyl)ethoxy]methyl}-2-furyl)-4-quinazolinamine]: the half-maximal inhibitory concentration (IC50) at c-erbB-2 is under 100 nM; on c-erbB-4 it was 100 to 1000 nM; in the assay with HB4a c5.2 cells, 100 to 1000 nM; with N87 cells, 100 to 1000 nM; in the assay with HN5 cells it was 100 to 1000 nM; in assay [1] it was under 100 nM. In addition, the IC50 in the assay with BT474 cells was in the range of 100 to 1000 nM.

Regarding `C=CS(=O)(=O)CCOCc1ccc(-c2ccc3ncnc(Nc4ccc(OCc5cccc(F)c5)c(Cl)c4)c3c2)o1` [Example 14, N-{3-chloro-4-[(3-fluorobenzyl)oxy]phenyl}-6-(5-{[2-(vinylsulfonyl)ethoxy]methyl}-2-furyl)-4-quinazolinamine], the IC50 on c-erbB-2 is under 100 nM; at c-erbB-4 it was 100 to 1000 nM; in the assay on HB4a c5.2 cells it was 1000 to 10000 nM; in the assay with N87 cells it was 1000 to 10000 nM; in the assay with HN5 cells, 1000 to 10000 nM; in assay [1], under 100 nM. In addition, the IC50 in the assay on BT474 cells lay in the range of 1000 to 10000 nM.

Regarding `CS(=O)(=O)CCN(CC#N)Cc1ccc(-c2ccc3ncnc(Nc4ccc(OCc5cccc(F)c5)c(Cl)c4)c3c2)o1` [Example 15, 2-{{[5-(4-{3-chloro-4-[(3-fluorobenzyl)oxy]anilino}-6-quinazolinyl)-2-furyl]methyl}[2-(methylsulfonyl)ethyl]amino}acetonitrile], the IC50 at c-erbB-2 is under 100 nM; on c-erbB-4, 100 to 1000 nM; in the assay on HB4a c5.2 cells it was 100 to 1000 nM; in the assay with N87 cells, 100 to 1000 nM; in the assay with HN5 cells, under 100 nM; in assay [1] it was under 100 nM. Moreover, the IC50 in the assay with BT474 cells was under 100 nM.

With `CS(=O)(=O)CCN(Cc1ccccc1)Cc1ccc(-c2ccc3ncnc(Nc4ccc(OCc5cccc(F)c5)c(Cl)c4)c3c2)o1` [Example 16, 6-[5-({benzyl[2-(methylsulfonyl)ethyl]amino}methyl)-2-furyl]-N-{3-chloro-4-[(3-fluorobenzyl)oxy]phenyl}-4-quinazolinamine], the IC50 at c-erbB-2 fell in the range of 100 to 1000 nM; at c-erbB-4 it was 100 to 1000 nM; with HB4a c5.2 cells it was 1000 to 10000 nM; in the assay with N87 cells, 100 to 1000 nM; in the assay on HN5 cells, 1000 to 10000 nM; in the assay on BT474 cells, 100 to 1000 nM.

As for `CCN(CCS(C)(=O)=O)Cc1ccc(-c2ccc3ncnc(Nc4ccc(OCc5cccc(F)c5)c(Cl)c4)c3c2)o1` [Example 17, N-{3-chloro-4-[(3-fluorobenzyl)oxy]phenyl}-6-[5-({ethyl[2-(methylsulfonyl)ethyl]amino}methyl)-2-furyl]-4-quinazolinamine], the IC50 at c-erbB-2 is under 100 nM; at c-erbB-4, 100 to 1000 nM; in the assay with HB4a c5.2 cells it was 100 to 1000 nM; in the assay on N87 cells it was 100 to 1000 nM; with HN5 cells, 100 to 1000 nM; in assay [1], under 100 nM. Besides, in the assay on BT474 cells, the IC50 was 100 to 1000 nM.

`CCCN(CCS(C)(=O)=O)Cc1ccc(-c2ccc3ncnc(Nc4ccc(OCc5cccc(F)c5)c(Cl)c4)c3c2)o1` [Example 18, N-{3-chloro-4-[(3-fluorobenzyl)oxy]phenyl}-6-(5-{[[2-(methylsulfonyl)ethyl](propyl)amino]methyl}-2-furyl)-4-quinazolinamine]: the IC50 on c-erbB-2 was under 100 nM; on c-erbB-4, under 100 nM; with HB4a c5.2 cells, 100 to 1000 nM; in the assay on N87 cells it was 100 to 1000 nM; with HN5 cells, 100 to 1000 nM; in assay [1], under 100 nM. Further, the IC50 in the assay on BT474 cells fell in the range of 100 to 1000 nM.

For the molecule `CC(C)S(=O)(=O)CCNCc1ccc(-c2ccc3ncnc(Nc4ccc(OCc5cccc(F)c5)c(Cl)c4)c3c2)o1` [Example 19], the 50% inhibitory concentration (IC50) at c-erbB-2 was under 100 nM; at c-erbB-4 it was 100 to 1000 nM; in the assay on HB4a c5.2 cells, 100 to 1000 nM; in the assay with N87 cells, 100 to 1000 nM; with BT474 cells, 100 to 1000 nM.
